Patent publication US10051857B2, “Formulation component” (SYNGENTA LIMITED, priority 2011, dated 2018)

Assays:
Assay type in all cases: in vivo
[1] = test system: Avena fatua (AVEFA); experiment: Glasshouse adjuvant test with pinoxaden (Example 8); conditions: pinoxaden 7.5 or 15 g/ha, adjuvant 0.2% v/v or none, 200 l/ha; growth stage 12; mean over two rates, three replicates, 14 and 21 days
Procedure: (§1) The adjuvant shown in example 1 was tested in a glasshouse against four weed species in combination with the herbicide pinoxaden. A 20% w/w stock emulsion of compound 1 was prepared additionally containing 2% w/w Gohsenol® GL03 and 2% w/w Pluronic® PE10500 as surfactants. Using this, an agrochemical composition was prepared containing 0.2% v/v of the adjuvant in a track sprayer and was applied at a volume of 200 liters per hectare. Pinoxaden was applied at either 7.5 or 15 grams of pesticide per hectare on each of the weed species. The weed species and their growth stage at spraying were Alopecurus myosuroides (ALOMY; growth stage 13), Avena fatua (AVEFA; growth stage 12); Lolium perenne (LOLPE; growth stage 13), Setaria viridis (SETVI; growth stage 14).
(§2) Each spray test was replicated three times. The efficacy of the herbicide was assessed visually and expressed as a percentage of the leaf area killed. Samples were assessed at time periods of 14 and 21 days following application. The results shown in Table 8 are mean averages over the two rates of pinoxaden, three replicates and the two assessment timings, and are compared to the efficacy of pinoxaden in the absence of adjuvant.

[2] = test system: Alopecurus myosuroides (ALOMY); experiment: as above; conditions: pinoxaden 7.5 or 15 g/ha, adjuvant 0.2% v/v or none, 200 l/ha; growth stage 13; mean over two rates, three replicates, 14 and 21 days
Procedure: as §1, §2

[3] = test system: Lolium perenne (LOLPE); experiment: as above; conditions: pinoxaden 7.5 or 15 g/ha, adjuvant 0.2% v/v or none, 200 l/ha; growth stage 13; mean over two rates, three replicates, 14 and 21 days
Procedure: as §1, §2

[4] = test system: Setaria viridis (SETVI); experiment: as above; conditions: pinoxaden 7.5 or 15 g/ha, adjuvant 0.2% v/v or none, 200 l/ha; growth stage 14; mean over two rates, three replicates, 14 and 21 days
Procedure: as §1, §2

[5] = test system: four weed species (ABUTH, CHEAL, DIGSA, SETVI); experiment: Glasshouse adjuvant test with nicosulfuron (Example 7), mean across species; conditions: nicosulfuron 30 or 60 g/ha, adjuvant 0.2% v/v or none
Procedure: (§3) Compound 1 was tested in a glasshouse against four weed species using the herbicide nicosulfuron. A 20% w/w stock emulsion of compound 1 was prepared additionally containing 2% w/w Gohsenol® GL03 and 2% w/w Pluronic® PE10500 as surfactants. Using this, an agrochemical composition was prepared containing 0.2% v/v of the adjuvant in a track sprayer and was applied at a volume of 200 liters per hectare. Nicosulfuron was applied at either 30 or 60 grams of pesticide per hectare on each of the weed species. The weed species and their growth stage at spraying were Abutilon theophrasti (ABUTH; growth stage 13), Chenopodium album (CHEAL; growth stage 14), Digitaria sanguinalis (DIGSA; growth stage 13), and Setaria viridis (SETVI; growth stage 13).
(§4) Each spray test replicated three times. The efficacy of the herbicide was assessed visually and expressed as a percentage of the leaf area killed. Samples were assessed at time periods of 14 and 21 days following application. The results shown in Table 7 below are mean averages over the two rates of nicosulfuron, three replicates and the two assessment timings, and are compared to the efficacy of nicosulfuron in the absence of an adjuvant.

[6] = test system: Chenopodium album (CHEAL); experiment: Glasshouse adjuvant test with nicosulfuron (Example 7); conditions: nicosulfuron 30 or 60 g/ha, adjuvant 0.2% v/v or none, 200 l/ha; growth stage 14; mean over two rates, three replicates, 14 and 21 days
Procedure: as §3, §4

[7] = test system: Digitaria sanguinalis (DIGSA); experiment: as above; conditions: nicosulfuron 30 or 60 g/ha, adjuvant 0.2% v/v or none, 200 l/ha; growth stage 13; mean over two rates, three replicates, 14 and 21 days
Procedure: as §3, §4

[8] = test system: Abutilon theophrasti (ABUTH); experiment: as above; conditions: nicosulfuron 30 or 60 g/ha, adjuvant 0.2% v/v or none, 200 l/ha; growth stage 13; mean over two rates, three replicates, 14 and 21 days
Procedure: as §3, §4

[9] = test system: Setaria viridis (SETVI); experiment: as above; conditions: nicosulfuron 30 or 60 g/ha, adjuvant 0.2% v/v or none, 200 l/ha; growth stage 13; mean over two rates, three replicates, 14 and 21 days
Procedure: as §3, §4

[10] = test system: four weed species (AMATE, BRADE, DIGSA, POLCO); experiment: Glasshouse adjuvant test with mesotrione (Example 6), mean across species; conditions: mesotrione 45 or 90 g/ha, adjuvant 0.2% v/v or none
[11] = test system: four weed species (CHEAL, ABUTH, SETVI, XANST); experiment: Glasshouse adjuvant test with fomesafen (Example 5), mean across species; conditions: fomesafen 60 or 120 g/ha, adjuvant 0.2% v/v or none
Procedure: Compound 1 (N, N-diethyl-3-methylbenzamide) was tested in a glasshouse against four weed species using the herbicide fomesafen. An agrochemical composition was prepared containing 0.2% v/v of the adjuvant in a track sprayer and was applied at a volume of 200 liters per hectare. Fomesafen was applied at either 60 or 120 grams of pesticide per hectare on each of the weed species. The weed species and their growth stage at spraying were Chenopodium album (CHEAL; growth stage 13/14), Abutilon theophrasti (ABUTH; growth stage 12), Setaria viridis (SETVI; growth stage 13), and Xanthium strumarium (XANST; growth stage 12).
(§5) Each spray test was replicated three times. The efficacy of the herbicide was assessed visually and expressed as a percentage of the leaf area killed. Samples were assessed at time periods of 7, 14 and 21 days following application. The results shown in Table 5 below are mean averages over the two rates of fomesafen, three replicates and the three assessment timings, and are compared to the efficacy of fomesafen in the absence of adjuvant.

[12] = test system: Polygonum convolvulus (POLCO); experiment: Glasshouse adjuvant test with mesotrione (Example 6); conditions: mesotrione 45 or 90 g/ha, adjuvant 0.2% v/v or none, 200 l/ha; growth stage 11/11.5; mean over two rates, three replicates, 7, 14 and 21 days
Procedure: Compound 1 was tested in a glasshouse against four weed species using the herbicide mesotrione. A 20% w/w stock emulsion of compound 1 was prepared additionally containing 2% w/w Gohsenol® GL03 and 2% w/w Pluronic® PE10500 as surfactants. Using this, an agrochemical composition was prepared containing 0.2% v/v of the adjuvant in a track sprayer and was applied at a volume of 200 liters per hectare. Mesotrione was applied at either 45 or 90 grams of pesticide per hectare on each of the weed species. The weed species and their growth stage at spraying were Amaranthus tuberculatus (AMATE; growth stage 13/14), Brachiaria decumbens (BRADE; growth stage 13/14), Digitaria sanguinalis (DIGSA; growth stage 14), and Polygonum convolvulus (POLCO; growth stage 11/11.5).
as §5, with “Each” for “Each spray”, “6” for “5”, “mesotrione,” for “fomesafen,”, “mesotrione” for “fomesafen”, “in” for “in the”

CCN(CC)C(=O)c1cccc(C)c1 [Compound 1, N, N-diethyl-3-methylbenzamide]
Mean percentage kill AVEFA [1]: 29.2%
Mean percentage kill ALOMY [2]: 22.5%
Mean percentage kill LOLPE [3]: 20.8%
Mean percentage kill SETVI [4]: 15.8%
Mean percentage kill, Mean across species [5]: 81.3%
Mean percentage kill CHEAL [6]: 63.8%
Mean percentage kill DIGSA [7]: 89.4%
Mean percentage kill ABUTH [8]: 72.9%
Mean percentage kill SETVI [9]: 93.4%
Mean percentage kill, Mean across species [10]: 54.1%
Mean percentage kill, Mean across species [11]: 42.6%
Mean percentage kill POLCO [12]: 87.2%
